In ChEMBL document CHEMBL1201862, “PubChem BioAssay data set” (2004):
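48-hour exposure; five concentrations; linearly interpolated endpoints. The concentration for 50% growth inhibition is given as GI50.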 Activity calls are given as the source filed them. Cut-off read from the data, not from the text of the source: active = GI50 up to about 1.1 µM and inactive = higher.

Key:
Experiment in all cases: NCI-60 cell line screen, 48 h
SK-MEL-28 = system: SK-MEL-28
A498 = system: A498
MDA-MB-435 = system: MDA-MB-435
ACHN = system: ACHN
OVCAR-8 = system: OVCAR-8
MDA-MB-231 = system: MDA-MB-231
SW-620 = system: SW-620
SF-539 = system: SF-539
NCI-H23 = system: NCI-H23
DU-145 = system: DU-145
BT-549 = system: BT-549
PC-3 = system: PC-3
RXF 393 = system: RXF 393
HT-29 = system: HT-29
SF-268 = system: SF-268
SK-MEL-5 = system: SK-MEL-5
MCF7 = system: MCF7
OVCAR-4 = system: OVCAR-4
NCI-H460 = system: NCI-H460

SMILES | GI50 (SK-MEL-28) | GI50 (A498) | GI50 (MDA-MB-435) | GI50 (ACHN) | GI50 (OVCAR-8) | GI50 (MDA-MB-231) | GI50 (SW-620) | GI50 (SF-539) | GI50 (NCI-H23) | GI50 (DU-145) | GI50 (BT-549) | GI50 (PC-3) | GI50 (RXF 393) | GI50 (HT-29) | GI50 (SF-268) | GI50 (SK-MEL-5) | GI50 (MCF7) | GI50 (OVCAR-4) | GI50 (NCI-H460)
COc1cc(/C=C/c2cc(=O)cc(/C=C/c3ccc(O)c(OC)c3)o2)ccc1O | > 100 µM (inactive) | > 100 µM (inactive) | 35.5 µM (inactive) | 48.1 µM (inactive) | 46.2 µM (inactive) | 26.4 µM (inactive) | > 35.5 µM (inactive) | > 62.5 µM (inactive) | 59.7 µM (inactive) | 31 µM (inactive) | 99.8 µM (inactive) | > 85.9 µM (inactive) | 15.9 µM (inactive) | > 80.4 µM (inactive) | 38 µM (inactive) | 13.6 µM (inactive) | 6.27 µM (inactive) | 16.4 µM (inactive) | 44 µM (inactive)
CO/C(=N\N=C\c1cccc(C(F)(F)F)c1)c1ccncc1 | 24.3 µM (inactive) | 9.91 µM (inactive) | 2.32 µM (inactive) | 8.13 µM (inactive) | 9.46 µM (inactive) | 7.14 µM (inactive) | 4.6 µM (inactive) | 4.67 µM (inactive) | 12 µM (inactive) | 7.85 µM (inactive) | 7.13 µM (inactive) | 40.7 µM (inactive) | 6.64 µM (inactive) | 4.62 µM (inactive) | 8.05 µM (inactive) | 11.4 µM (inactive) | 2.52 µM (inactive) | 41 µM (inactive) | 4.97 µM (inactive)
S=C(N/N=C/c1ccccn1)N1CC2CCC(CC2)C1 | 0.0559 µM (active) | 0.119 µM (active) | 0.0404 µM (active) | < 0.01 µM (active) | < 0.01 µM (active) | < 0.01 µM (active) | < 0.01 µM (active) | < 0.0229 µM (active) | < 0.01 µM (active) | 0.0471 µM (active) | < 0.01 µM (active) | < 0.01 µM (active) | 0.0703 µM (active) | < 0.01 µM (active) | 0.0301 µM (active) | < 0.01 µM (active) | < 0.01 µM (active) | 0.0308 µM (active) | < 0.01 µM (active)
COc1ccc(CCNC(=O)CCc2ccccc2CO)cc1OC | > 100 µM (inactive) | > 100 µM (inactive) | > 100 µM (inactive) | > 100 µM (inactive) | > 100 µM (inactive) | > 100 µM (inactive) | > 100 µM (inactive) | > 100 µM (inactive) | > 100 µM (inactive) | > 100 µM (inactive) | > 100 µM (inactive) | > 100 µM (inactive) | > 100 µM (inactive) | > 100 µM (inactive) | > 100 µM (inactive) | > 100 µM (inactive) | > 100 µM (inactive) | > 100 µM (inactive) | > 100 µM (inactive)
CCOC(=O)C1CCCCN1CCc1c[nH]c2ccccc12 (stereo not given) | > 100 µM (inactive) | 44.1 µM (inactive) | > 100 µM (inactive) | > 100 µM (inactive) | > 100 µM (inactive) | > 100 µM (inactive) | > 100 µM (inactive) | > 100 µM (inactive) | 83.8 µM (inactive) | > 100 µM (inactive) | 75 µM (inactive) | > 100 µM (inactive) | 80.9 µM (inactive) | 50.9 µM (inactive) | > 100 µM (inactive) | 80.9 µM (inactive) | > 100 µM (inactive) | 73.5 µM (inactive) | 94.8 µM (inactive)
CC(=O)Oc1cccc2c1C(=O)c1c(OC(C)=O)cc(C)cc1C2=O | 27.9 µM (inactive) | 37.8 µM (inactive) | 43.4 µM (inactive) | 78.3 µM (inactive) | 39.8 µM (inactive) | 43 µM (inactive) | 37 µM (inactive) | 26.3 µM (inactive) | 50.9 µM (inactive) | 56.6 µM (inactive) | 61.1 µM (inactive) | 26.1 µM (inactive) | 28.2 µM (inactive) | 39.6 µM (inactive) | 62.8 µM (inactive) | 29 µM (inactive) | 46 µM (inactive) | 27.7 µM (inactive) | 26.1 µM (inactive)
CC[C@@]1(O)C(=O)OCc2c1cc1n(c2=O)Cc2c-1nc1ccccc1c2/C=N\NC(=O)C(N)Cc1c[nH]c2ccccc12 (stereo not given in full) | 1.26 µM (inactive) | 0.499 µM (active) | 1.05 µM (active) | < 0.0188 µM (active) | 0.555 µM (active) | 33 µM (inactive) | 0.61 µM (active) | 0.101 µM (active) | 0.124 µM (active) | 0.164 µM (active) | 6.25 µM (inactive) | 1.29 µM (inactive) | 0.145 µM (active) | 3.74 µM (inactive) | 0.0354 µM (active) | 0.521 µM (active) | 0.0668 µM (active) | 3.08 µM (inactive) | 0.104 µM (active)
O=C(/C=C/c1ccccc1O)CC(=O)/C=C/c1ccccc1O | 12.8 µM (inactive) | 23.3 µM (inactive) | 4.38 µM (inactive) | 5.92 µM (inactive) | 4.41 µM (inactive) | > 10 µM (inactive) | 4.51 µM (inactive) | 5.9 µM (inactive) | 2.81 µM (inactive) | 14.5 µM (inactive) | 5.62 µM (inactive) | 5.28 µM (inactive) | 3.25 µM (inactive) | 1.84 µM (inactive) | > 10 µM (inactive) | 5.32 µM (inactive) | 4.14 µM (inactive) | 15.1 µM (inactive) | 7.45 µM (inactive)
COc1cc([C@@H]2c3cc4c(cc3[C@@H](c3c(O)cc(O)c5c3O[C@H](c3ccc(O)c(O)c3)[C@H](OC(=O)c3cc(O)c(O)c(O)c3)C5)[C@H]3COC(=O)[C@H]23)OCO4)cc(OC)c1O | 79.8 µM (inactive) | 74.5 µM (inactive) | 22.6 µM (inactive) | 53.7 µM (inactive) | 35.6 µM (inactive) | 57.8 µM (inactive) | 44.4 µM (inactive) | 24.1 µM (inactive) | 69.2 µM (inactive) | 32 µM (inactive) | > 100 µM (inactive) | 42.8 µM (inactive) | 59.4 µM (inactive) | 25 µM (inactive) | 30.8 µM (inactive) | 25.8 µM (inactive) | 42 µM (inactive) | > 100 µM (inactive) | 32.5 µM (inactive)
CCOP(=O)(O)C(Nc1ccc(/N=N/c2ccccc2)cc1)c1ccc(C(Nc2ccc(/N=N/c3ccccc3)cc2)P(=O)(O)OCC)cc1 (stereo not given) | 19.2 µM (inactive) | 32 µM (inactive) | 17.4 µM (inactive) | > 100 µM (inactive) | 16.3 µM (inactive) | 30 µM (inactive) | 16.7 µM (inactive) | 19.2 µM (inactive) | 29.2 µM (inactive) | > 100 µM (inactive) | 18.1 µM (inactive) | 17.1 µM (inactive) | 25.2 µM (inactive) | 18.3 µM (inactive) | 20.4 µM (inactive) | 16.6 µM (inactive) | 48.3 µM (inactive) | 42.8 µM (inactive) | 22 µM (inactive)
